For this test, the target named is T1, mouse TRPM3a2 (mTRPM3) ion channel (Mus musculus, UniProt J9SQF3).
T1 construct: expressed in transfected cells; host or cells: flip-in HEK293
Put plainly: TRPM3 ion channel driven Ca2+ uptake, Fluo-4 AM assay (PS-stimulated, overexpressing flip-in HEK293 cells). Type of test: cell-based. The procedure, abridged:
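Flip-in HEK293 cells overexpressing mTRPM3α2, loaded with Fluo-4 AM, were added to wells with compound plus 50 μM pregnenolone sulfate in Ca2+-containing Krebs buffer and read immediately (ex 485/em 535 nm). Percent inhibition was scaled between PS-plus-vehicle and positive-control-inhibitor signals.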

The mark [1] stands for this setting: PS (50 μM) stimulated, cpd 001-199.
Where [2] appears, read: PS (50 μM) stimulated Ca2+ influx, HEK293, cpds 300-399.
The mark [3] stands for this setting: PS (50 μM) stimulated, cpds. 400-499.
The mark [4] stands for this setting: PS (50 μM) stimulated, cpds. 500-599.
Where [5] appears, read: PS (50 μM) stimulated, cpds. 600-666.

Bounds are passed on as bounds.

One may read the IC50 as the concentration that inhibits the measured activity by half. A low value points to greater potency in that assay.

T1 sequence (J9SQF3 1-1709 isoform J9SQF3-12): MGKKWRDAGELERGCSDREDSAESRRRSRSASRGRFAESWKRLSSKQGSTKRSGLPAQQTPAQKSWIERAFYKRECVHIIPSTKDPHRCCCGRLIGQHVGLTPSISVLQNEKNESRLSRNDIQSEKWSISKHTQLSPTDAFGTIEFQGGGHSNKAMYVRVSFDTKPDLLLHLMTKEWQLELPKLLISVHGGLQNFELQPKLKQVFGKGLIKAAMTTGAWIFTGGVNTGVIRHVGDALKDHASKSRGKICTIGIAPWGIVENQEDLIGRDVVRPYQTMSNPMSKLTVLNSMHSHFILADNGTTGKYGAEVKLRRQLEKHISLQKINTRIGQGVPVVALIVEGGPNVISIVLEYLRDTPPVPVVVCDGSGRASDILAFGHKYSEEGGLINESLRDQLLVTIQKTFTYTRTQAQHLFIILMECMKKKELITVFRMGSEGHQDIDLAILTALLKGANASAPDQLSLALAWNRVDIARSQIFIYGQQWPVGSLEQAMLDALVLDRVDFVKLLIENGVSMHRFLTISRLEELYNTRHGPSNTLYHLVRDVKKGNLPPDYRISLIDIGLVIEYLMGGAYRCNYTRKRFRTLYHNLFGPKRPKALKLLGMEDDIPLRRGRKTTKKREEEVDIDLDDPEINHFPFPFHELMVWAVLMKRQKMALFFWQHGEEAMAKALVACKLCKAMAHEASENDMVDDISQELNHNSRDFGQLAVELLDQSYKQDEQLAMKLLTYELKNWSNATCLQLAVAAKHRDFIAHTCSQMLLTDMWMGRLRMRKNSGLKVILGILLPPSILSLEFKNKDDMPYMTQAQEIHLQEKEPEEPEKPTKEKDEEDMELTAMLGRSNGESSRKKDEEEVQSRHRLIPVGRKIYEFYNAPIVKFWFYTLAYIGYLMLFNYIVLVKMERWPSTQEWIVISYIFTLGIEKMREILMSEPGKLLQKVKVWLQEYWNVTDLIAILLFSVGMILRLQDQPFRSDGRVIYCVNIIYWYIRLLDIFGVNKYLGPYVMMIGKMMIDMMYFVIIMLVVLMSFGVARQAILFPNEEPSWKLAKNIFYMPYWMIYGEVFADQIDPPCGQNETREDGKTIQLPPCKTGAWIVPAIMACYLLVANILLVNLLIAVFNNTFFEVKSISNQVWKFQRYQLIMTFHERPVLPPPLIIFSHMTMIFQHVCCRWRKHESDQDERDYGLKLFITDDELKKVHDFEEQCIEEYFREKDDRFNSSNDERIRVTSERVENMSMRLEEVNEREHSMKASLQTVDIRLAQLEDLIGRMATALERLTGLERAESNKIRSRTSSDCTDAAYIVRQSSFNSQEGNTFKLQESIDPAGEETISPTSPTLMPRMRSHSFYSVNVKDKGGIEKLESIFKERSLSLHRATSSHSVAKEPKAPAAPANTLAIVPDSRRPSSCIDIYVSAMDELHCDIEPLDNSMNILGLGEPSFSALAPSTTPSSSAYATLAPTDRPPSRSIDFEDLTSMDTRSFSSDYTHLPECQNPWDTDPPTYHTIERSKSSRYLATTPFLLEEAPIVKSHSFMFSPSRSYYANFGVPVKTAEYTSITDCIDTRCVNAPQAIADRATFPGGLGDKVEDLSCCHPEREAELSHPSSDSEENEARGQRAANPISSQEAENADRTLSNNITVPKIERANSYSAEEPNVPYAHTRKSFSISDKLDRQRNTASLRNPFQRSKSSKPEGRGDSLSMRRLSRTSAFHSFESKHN

As to `Cc1ncsc1COc1ccc2oc(C)c(C(=O)NC3CC4(CNC4)C3)c2c1` [cpd 190, 2-methyl-5-((4-methylthiazol-5-yl)methoxy)-N-(2-azaspiro[3.3]heptan-6-yl)benzofuran-3-carboxamide], the IC50 under setting [1] is 1 to 20 µM. Same read-out and setting: in the case of `Cc1ncsc1COc1ccc2oc(C(F)F)c(C(=O)NC3(CO)CCOCC3)c2c1` [cpd 197, 2-(difluoromethyl)-N-(4-(hydroxymethyl)tetrahydro-2H-pyran-4-yl)-5-((4-methylthiazol-5-yl)-methoxy)benzofuran-3-carboxamide] it was 1 to 20 µM. `Cc1ncc(COc2ccc3oc(C)c(C(=O)N[C@@H](CO)C(=O)N4CCC(F)(F)C4)c3c2)s1` [cpd 277, (S)-N-(1-(3,3-difluoropyrrolidin-1-yl)-3-hydroxy-1-oxopropan-2-yl)-2-methyl-5-((2-methylthiazol-5-yl)methoxy)benzofuran-3-carboxamide] showed an IC50 (PS (50 μM) stimulated Ca2+ influx, HEK293, cpds 200-299) of 1 to 20 µM. Turning to `Cc1ncc(COc2ccc3oc(C)c(C(=O)N[C@@H](CO)C(=O)N4CCCC4)c3c2)s1` [cpd 307, (S)-N-(3-hydroxy-1-oxo-1-(pyrrolidin-1-yl)propan-2-yl)-2-methyl-5-((2-methylthiazol-5-yl)methoxy)benzofuran-3-carboxamide], under setting [2], the IC50 lay within 1 to 20 µM. On the same count and under the same terms, in the case of `Cc1ncsc1COc1ccc2oc(C(F)F)c(C(=O)NC3(CO)CC3)c2c1` [cpd 308, 2-(difluoromethyl)-N-(1-(hydroxymethyl)cyclopropyl)-5-((4-methylthiazol-5-yl)methoxy)benzofuran-3-carboxamide] it was 1 to 20 µM; in that of `Cc1ncsc1COc1ccc2oc(C(F)F)c(C(=O)NC3(CO)COC3)c2c1` [cpd 309, 2-(difluoromethyl)-N-(3-(hydroxymethyl)oxetan-3-yl)-5-((4-methylthiazol-5-yl)methoxy)benzofuran-3-carboxamide], 1 to 20 µM. With `COc1ncccc1COc1ccc2oc(C(F)F)c(C(=O)NC3(CO)CCOCC3)c2c1` [cpd 312, 2-(difluoromethyl)-N-(4-(hydroxymethyl)tetrahydro-2H-pyran-4-yl)-5-((2-methoxypyridin-3-yl)methoxy)benzofuran-3-carboxamide], the IC50 under setting [2] was 1 to 20 µM. Still for that read-out and setting: in the case of `Cc1ncsc1COc1ccc2oc(C)c(C(=O)NC3(CO)CC3)c2c1F` [cpd 327, 4-fluoro-N-(1-(hydroxymethyl)cyclopropyl)-2-methyl-5-((4-methylthiazol-5-yl)methoxy)benzofuran-3-carboxamide] it was 1 to 20 µM; in that of `Cc1oc2ccc(OCc3nccn3CC(F)F)cc2c1C(=O)NC1(CO)CCOCC1` [cpd 331, 5-((1-(2,2-difluoroethyl)-1H-imidazol-2-yl)methoxy)-N-(4-(hydroxymethyl)tetrahydro-2H-pyran-4-yl)-2-methylbenzofuran-3-carboxamide], 1 to 20 µM; in that of `Cc1oc2ccc(OCc3ncccc3C(F)F)cc2c1C(=O)NC1(CO)CCOCC1` [cpd 351, 5-((3-(difluoromethyl)pyridin-2-yl)methoxy)-N-(4-(hydroxymethyl)tetmhydro-2H-pyran-4-yl)-2-methylbenzofuran-3-carboxamide], 1 to 20 µM.

The compound `Cc1ncsc1COc1cc(F)c2oc(C)c(C(=O)NC3(CO)CC3)c2c1` [cpd 366, 7-fluoro-N-(1-(hydroxymethyl)cyclopropyl)-2-methyl-5-((4-methylthiazol-5-yl)methoxy)benzofuran-3-carboxamide] showed a 50% inhibitory concentration (IC50) under setting [2] of 1 to 20 µM.

Take `Cc1oc2c(F)cc(OCc3cccnc3O)cc2c1C(=O)NC1(CO)CCOCC1` [cpd 368, 7-fluoro-N-(4-(hydroxymethyl)tetrahydro-2H-pyran-4-yl)-5-((2-hydroxypyridin-3-yl)methoxy)-2-methylbenzofuran-3-carboxamide]: under setting [2], the IC50 was in the range of 1 to 20 µM. As to `COc1ncccc1COc1cc(F)c2oc(C)c(C(=O)NC3(CO)CCOCC3)c2c1` [cpd 369, 7-fluoro-N-(4-(hydroxymethyl)tetrahydro-2H-pyran-4-yl)-5-((2-methoxypyridin-3-yl)methoxy)-2-methylbenzofuran-3-carboxamide], the IC50 under setting [2] lay in the range of 1 to 20 µM. `Cc1oc2ccc(OCc3ccnn3CC(F)F)cc2c1C(=O)N[C@H](C(N)=O)[C@@H](C)O` [cpd 381, N-((2S,3R)-1-amino-3-hydroxy-1-oxobutan-2-yl)-5-((1-(2,2-difluoroethyl)-1H-pyrazol-5-yl)methoxy)-2-methylbenzofuran-3-carboxamide]: under setting [2], the 50% inhibitory concentration (IC50) is no more than 1 µM. Under setting [3], `Cc1oc2ccc(OCc3cccn(C)c3=O)cc2c1C(=O)NC1CCN(CCO)C1=O` (centres unmarked) [cpd 405, N-(1-(2-hydroxyethyl)-2-oxopyrrolidin-3-yl)-2-methyl-5-((1-methyl-2-oxo-1,2-dihydropyridin-3-yl)methoxy)benzofuran-3-carboxamide] showed an IC50 of no less than 20 µM. Regarding `Cc1oc2ccc(OCc3cccnc3O)cc2c1C(=O)NC1(C(N)=O)CC1` [cpd 479, N-(1-carbamoylcyclopropyl)-5-((2-hydroxypyridin-3-yl)methoxy)-2-methylbenzofuran-3-carboxamide], the IC50 under setting [3] lay within 1 to 20 µM. Compound `Cc1ncsc1COc1ccc2oc(C)c(C(=O)NC(C#N)C(N)=O)c2c1` (centres unmarked) [cpd 502, N-(2-amino-1-cyano-2-oxoethyl)-2-methyl-5-((4-methylthiazol-5-yl)methoxy)benzofuran-3-carboxamide] gave a 50% inhibitory concentration (IC50) under setting [4] of no more than 1 µM. `Cc1ncsc1COc1ccc2oc(C)c(C(=O)NCC(N)=O)c2c1` [cpd 503, N-(2-amino-2-oxoethyl)-2-methyl-5-((4-methylthiazol-5-yl)methoxy)benzofuran-3-carboxamide]: the IC50 under setting [4] is no more than 1 µM. Under setting [4], `Cc1ncsc1COc1ccc2oc(C)c(C(=O)NC3(CN)COC3)c2c1` [cpd 507, N-(3-(aminomethyl)oxetan-3-yl)-2-methyl-5-((4-methylthiazol-5-yl)methoxy)benzofuran-3-carboxamide] came in with an IC50 of 1 to 20 µM. With `Cc1oc2ccc(OCc3nccn3C)cc2c1C(=O)NC1(CO)COC1` [cpd 523, N-(3-(hydroxymethyl)oxetan-3-yl)-2-methyl-5-((1-methyl-1H-imidazol-2-yl)methoxy)benzofuran-3-carboxamide], the IC50 under setting [4] is 1 to 20 µM. Same read-out and setting: the value for `Cc1oc2ccc(OCc3nccn3C)cc2c1C(=O)NC1(C(N)=O)COC1` [cpd 578, N-(3-carbamoyloxetan-3-yl)-2-methyl-5-((1-methyl-1H-imidazol-2-yl)methoxy)benzofuran-3-carboxamide] was 1 to 20 µM. In the case of `Cc1ncsc1COc1ccc2oc(C)c(C(=O)NC3(CO)CCOCC3)c2c1C` [cpd 603, N-(4-(hydroxymethyl)tetrahydro-2H-pyran-4-yl)-2,4-dimethyl-5-((4-methylthiazol-5-yl)methoxy)benzofuran-3-carboxamide], under setting [5], the 50% inhibitory concentration (IC50) lay in the range of 1 to 20 µM. On the same count and under the same terms, the value for `Cc1oc2ccc(OCc3ncn(C)n3)cc2c1C(=O)NC1(CO)CCOCC1` [cpd 606, N-(4-(hydroxymethyl)tetrahydro-2H-pyran-4-yl)-2-methyl-5-((1-methyl-1H-1,2,4-triazol-3-yl)methoxy)benzofuran-3-carboxamide] was 1 to 20 µM. Still for that read-out and setting: the value for `Cc1oc2ccc(OCc3cncn3C)cc2c1C(=O)NC1(CO)CCOCC1` [cpd 607, N-(4-(hydroxymethyl)tetrahydro-2H-pyran-4-yl)-2-methyl-5-((1-methyl-1H-imidazol-5-yl)methoxy)benzofuran-3-carboxamide] was 1 to 20 µM; that for `Cc1oc2ccc(OCc3cccn(C)c3=O)cc2c1C(=O)NC1(CO)CCOCC1` [cpd 609, N-(4-(hydroxymethyl)tetrahydro-2H-pyran-4-yl)-2-methyl-5-((1-methyl-2-oxo-1,2-dihydropyridin-3-yl)methoxy)benzofuran-3-carboxamide] was 1 to 20 µM; that for `Cc1oc2ccc(OCc3cccc(=O)n3C)cc2c1C(=O)NC1(CO)CCOCC1` [cpd 610, N-(4-(hydroxymethyl)tetrahydro-2H-pyran-4-yl)-2-methyl-5-((1-methyl-6-oxo-1,6-dihydropyridin-2-yl)methoxy)benzofuran-3-carboxamide] was 1 to 20 µM. On to `Cc1nccc(COc2ccc3oc(C)c(C(=O)NC4(CO)CCOCC4)c3c2)n1` [cpd 612, N-(4-(hydroxymethyl)tetrahydro-2H-pyran-4-yl)-2-methyl-5-((2-methylpyrimidin-4-yl)methoxy)benzofuran-3-carboxamide], for which, under setting [5], the IC50 lay within 1 to 20 µM.

Take `Cc1coc(COc2ccc3oc(C)c(C(=O)NC4(CO)CCOCC4)c3c2)n1` [cpd 616, N-(4-(hydroxymethyl)tetrahydro-2H-pyran-4-yl)-2-methyl-5-((4-methyloxazol-2-yl)methoxy)benzofuran-3-carboxamide]: the IC50 under setting [5] lay in the range of 1 to 20 µM.

Regarding `Cc1csc(COc2ccc3oc(C)c(C(=O)NC4(CO)CCOCC4)c3c2)n1` [cpd 617, N-(4-(hydroxymethyl)tetrahydro-2H-pyran-4-yl)-2-methyl-5-((4-methylthiazol-2-yl)methoxy)benzofuran-3-carboxamide], the concentration for half-maximal inhibition (IC50) under setting [5] fell in the range of 1 to 20 µM. Regarding `Cc1cnc(COc2ccc3oc(C)c(C(=O)NC4(CO)CCOCC4)c3c2)cn1` [cpd 619, N-(4-(hydroxymethyl)tetrahydro-2H-pyran-4-yl)-2-methyl-5-((5-methylpyrazin-2-yl)methoxy)benzofuran-3-carboxamide], under setting [5], the IC50 was in the range of 1 to 20 µM.

Regarding `Cc1ccc(COc2ccc3oc(C)c(C(=O)NC4(CO)CCOCC4)c3c2)cn1` [cpd 622, N-(4-(hydroxymethyl)tetrahydro-2H-pyran-4-yl)-2-methyl-5-((6-methylpyridin-3-yl)methoxy)benzofuran-3-carboxamide], the IC50 under setting [5] is 1 to 20 µM. As to `Cc1oc2ccc(OCc3ncccn3)cc2c1C(=O)NC1(CO)CCOCC1` [cpd 626, N-(4-(hydroxymethyl)tetrahydro-2H-pyran-4-yl)-2-methyl-5-(pyrimidin-2-ylmethoxy)benzofuran-3-carboxamide], the IC50 under setting [5] lay in the range of 1 to 20 µM.

The values are drawn from patent US20240336602A1 (Katholieke Universiteit Leuven, priority 2020, published 2024).
